Laboratory results: patent US11307205B2, “Non-radioactive cytotoxicity assays” (University of Southern California, priority 2016, dated 2022)

Legend:
Type in all cases: cell-based
[1] = system: K562 cells; assay: Matador assay, death of K562 reporter cells induced by Digitonin or lytic reagent
[2] = system: RAJI cells; assay: Matador assay, Digitonin-induced death of RAJI cells expressing luciferase reporters
Protocol: A similar experiment was conducted with K562, HEL-91-1-17 and RAJI cells stably expressing NLuc from pLENTI-NLuc-AcV5-Blasticidin-Pa08 vector (SEQ ID NO: 92). Cells plated in 30 μl of medium per well were either treated with 30 μl of PBS or 30 μl of PBS containing Digitonin (final concentration 30 μg/ml) for 1 hour at 37° C., in a 5% CO2 incubator. For measurement of NLuc activity, 0.5×CTZ assay buffer was added by automated injector directly to each well of the 384-well white plate containing cells in 60 μl of volume (30 μl of RPMI-10% FBS+30 μl of Digitonin) without prior cell lysis and plates were read for luminescence using BioTek synergy H4 plate reader in well mode.
(§1) Briefly, 20000 cells in 20 μl media were plated in each well of a 384 well plate followed by addition of 20 μl of Digitonin (final concentration 30 μg/ml) or media alone (20 μl) and incubated for 90 minutes.

[3] = system: primary leukemia blast cells (Chrt3); assay: Matador assay on primary leukemia blast cells expressing GLuc; conditions: two additional primary leukemia samples; Digitonin; present tense
Protocol: To examine if this assay can be also used to measure death of primary cells, leukemic blasts were isolated from a de-identified leukemia patient using Ficoll-Hypaque gradient centrifugation and then transduced with pLenti-EF1a-Pac-T2A-Gluc-B07 (SEQ ID NO: 94) lentiviral vector to generate primary leukemia blast cells (Chrt3) expressing the non-secretory form of GLuc cDNA. Briefly, 1 million primary leukemic blasts were cultured in XVIVO medium in a 6-well plate in the presence of GLuc lentiviral supernatant and polybrene (5 μg/ml) and centrifuged at 2,800 rpm at 32° C. for 2 hours followed by incubation of cells at 37° C. for 24 hours in XVIVO medium. To measure the killing of Chrt3-GLuc cells, the transduced cells were plated at a density of 20,000 cells per well in 30 μl of medium in triplicate in a white 384 well plate and co-cultured with the effector cells for 4 hours at an E:T ratio of 0.125:1. Cell death was assayed by the single-step homogenous GLuc assay by injecting 0.5×CTZ assay buffer in well mode. […] Two additional primary leukemia samples are infected with GLuc encoding lentiviral vector and cell death is induced by treatment with Digitonin.

[4] = system: 293FT cells; assay: Matador assay, Digitonin-induced death of transiently transfected 293FT cells
Protocol: The 293FT cells were transfected in a 24-well plate with various expression plasmids (500 ng/well) using calcium phosphate. Approximately, 18 hours post-transfection, the cells were either left untreated or treated with 30 μg/ml Digitonin to induce cell death, followed by the detection of luminescence as described under luciferase assays.
293FT cells were transfected with pLenti-CBGRluc construct in a […]. 72 hours post-transfection, cells were trypsinized and plated in 6-well plates. For induction of cell death, cells in some wells were treated with Digitonin (50 μg/mL final concentration). CBGRluc activity was determined by adding assay buffer (1 mM D-Luciferin, 25 mM glycylclycine, 15 mM potassium phosphate, 15 mM MgSO4, 4 mM EGTA, 2 mM ATP, and 1 mM DTT) in a well mode. The assay buffer with substrate was added at 1:1 (v/v) ratio.
The MLuc7 cDNA also carried M43L and M110L substitutions. […] The mammalian expression vectors encoding the non-secretory forms of the above luciferase cDNAs were transiently transfected into 293FT cells by calcium phosphate co-precipitation method. […] 6 wells were treated with Digitonin and 6 wells were left untreated. Luciferase activity was measured by addition of coelentrazine containing assay buffer directly to each well.
The indicated luciferase constructs in either retroviral or lentiviral vectors were transiently transfected into 293FT cells by calcium phosphate co-precipitation method. Approximately 18 hours post-transfection, cells were treated with Digitonin for 90 minutes or left untreated (control). […] Essentially a similar procedure was used with a construct encoding Lucia-Luc.
293FT cells were transiently transfected with the above construct or left untransfected. Approximately 18 hours post-transfection, cells were treated for 90 min with Digitonin (final concentration 30 μg/ml) or left untreated. After the 90 minute incubation, 200 μl supernatant was collected from each well in a 1.5 ml tubes. The tubes were spun down at 1500 RPM for 5 minutes.
We next examined if the Matador cytotoxicity assay developed by us is limited to only luciferase proteins or can be adapted to any other protein that is not endogenously expressed by the target cells. For this purpose, we transiently transfected 293FT cells by calcium phosphate co-precipitation method with an expression plasmid encoding enhanced green fluorescent protein (GFP) or HA-epitope tagged-mCherry. Approximately 24 post-transfection, the transfected cells were either left untreated or treated with Digitonin to induce cell death. The cells were collected in tubes and centrifuged at 2,000 rpm for 5 min. Cell supernatant was collected in a new set of tubes and cell pellet were washed with cold phosphate-buffered saline twice and lysed in lysis buffer containing 20 mM Tris-HCl, pH 8.0, 500 mM NaCl, 0.25% Triton X-100, 1 mM EDTA, 10 mM β-glycophosphate, 10 mMNaF, 1 mM DTT, 1× protease inhibitor mixture (Roche Molecular Biochemicals) at 4° C. for 30 min. After incubation, the mixture was pippetted five or six times to disperse the cells followed by centrifugation at 14,000 rpm at 4° C. for 10 min. The cell lysates were collected as whole cell extracts, and protein concentration was determined by using Bio-Rad protein assay reagent. 30 μl of cell supernatant or 30 μg of whole cell extracts were heated in the presence of SDS-PAGE sample buffer and loaded on 10% SDS-PAGE gel followed by transferring to nitrocellulose membranes. These membranes were incubated with primary antibodies against specified proteins in Tris-buffered-saline with Tween 20 followed by incubation with secondary antibody (IRDye 800CW conjugates of goat anti-rabbit IgG; Li-Cor) and development with Odyssey Infrared Imaging System CLx (Li-Cor Biosciences). The secondary antibody was used at a 1:10,000 dilution.

[5] = system: Nalm6 cells; assay: Dual reporter Matador assay, Digitonin-induced death of Nalm6 cells; conditions: Nalm6 cells expressing both GLuc and FfLuc; Digitonin 30 μg/ml, 90 minutes
Protocol: as §1

With `C[C@@H]1CC[C@@]2(OC1)O[C@H]1[C@@H](O)[C@H]3[C@@H]4CC[C@H]5C[C@@H](O[C@@H]6O[C@H](CO)[C@H](O[C@@H]7O[C@H](CO)[C@@H](O)[C@H](O[C@@H]8OC[C@@H](O)[C@H](O)[C@H]8O)[C@H]7O[C@@H]7O[C@H](CO)[C@H](O)[C@H](O[C@@H]8O[C@H](CO)[C@@H](O)[C@H](O)[C@H]8O)[C@H]7O)[C@H](O)[C@H]6O)[C@H](O)C[C@]5(C)[C@H]4CC[C@]3(C)[C@H]1[C@@H]2C` [Digitonin] the MLuc7 activity ([1]; K562-MLuc7 (additional example), Digitonin 30 μg/ml, 1 cell/well to 10K cells/well) was “increase in MLuc7 activity”, the MLuc7 activity ([1]; K562-MLuc7, Digitonin 1 hour, 1 cell/well to 400K cells/well) was “increase in MLuc7 activity” and the “NLuc luminescence in the supernatant” value ([1]; K562-NLuc, Digitonin 1 h, all three assay buffers) was “increase in luminescence”. For the same molecule, the TLuc activity ([1]; K562 cells expressing TurboLuc16, Digitonin 90 min) was “increase in TLuc activity”, the “FfLuc and GLuc activities” value ([1]; K562 cells expressing both GLuc and FfLuc, Digitonin 30 μg/ml, 90 minutes) was “increase in both FfLuc and GLuc activities” and the LucPPe-146-1H2 activity ([1]; K562 cells stably expressing LucPPe-146-1H2, Digitonin 30 μg/ml) was “increase in LucPPe-146-1H2 activity”. For the same molecule, the NLuc activity ([1]; K562 cells stably expressing NLuc, Digitonin 30 μg/ml, 1 hour) was “increase in NLuc activity”, the “Renilla Luc activity” value ([1]; K562 cells stably expressing Renilla Luc, Digitonin 2 hours) was “increase in Renilla Luc activity” and the “Luc49-7C6A, Luc78-0B10, Luc133-IB2 and LucPpL-81-6G1 activities” value ([1]; K562 cells stably expressing these luciferases, Digitonin 30 μg/ml, example in present tense) was “increase in Luc49-7C6A, Luc78-0B10, Luc133-IB2 and LucPpL-81-6G1 activities”. For the same molecule, the “LucPPe-146-1H2 and NLuc luminescence” value ([1]; K562 co-expressing both luciferases, Digitonin 30 μg/ml, 90 minutes, Dual-Luciferase Reporter Assay System) was “increase in both LucPPe-146-1H2 and NLuc luminescence”, the “LucPPe-146-1H2 and NLuc activities” value ([1]; K562 co-expressing both luciferases, Digitonin, measured in different wells with D-luciferin and CTZ assay buffers) was “increase in both LucPPe-146-1H2 and NLuc activities” and the TLuc activity ([2]; RAJI cells expressing TurboLuc16, Digitonin 90 min) was “increase in TLuc activity”. The GLuc luciferase activity ([2]; RAJI cells stably expressing GLuc from MSCVhygro-GLuc-HA-G02, Digitonin) was “Essentially similar results”, the NLuc activity ([2]; RAJI cells stably expressing NLuc, Digitonin 30 μg/ml, 1 hour) was “increase in NLuc activity” and the “FfLuc and GLuc activities” value ([2]; Raji cells expressing both GLuc and FfLuc, Digitonin 30 μg/ml, 90 minutes) was “increase in both FfLuc and GLuc activities”. For the same molecule, the GLuc activity [3] was “increase in GLuc activity”, the luciferase activity ([4]; FfLuc construct, Digitonin 30 μg/ml, 90 min, supernatant) was “increase in luciferase activity” and the “fluorescence in cell supernatant” value ([4]; GFP and mCherry-HA transfected, Digitonin) was “significant increase in fluorescence”. The “GFP release in the supernatant fraction (Western blotting)” value ([4]; GFP transfected, Digitonin) was “increase in GFP release in the supernatant fraction”, the “mCherry release in the supernatant fraction (Western blotting)” value ([4]; HA-mCherry transfected, Digitonin) was “increase in mCherry release in the supernatant fraction” and the LucPPe luciferase activity ([4]; LucPPe-146-1H2 transient transfection, Digitonin) was “increase in LucPPe luciferase activity”. For the same molecule, the Luc activity ([4]; MYR-GGS-GLuc construct, Digitonin 30 μg/ml, 90 min, supernatant) was “increase in Luc activity”, the “increase in alkaline phosphatase activity in the cell supernatants” value ([4]; constructs encoding human embryonal alkaline phosphatase lacking the secretory signal, Digitonin 90 min) was “greater than 3 fold” and the alkaline phosphatase activity ([4]; empty vector or plasmid encoding the secretory form of human embryonal alkaline phosphatase, Digitonin 90 min) was “little or no increase”. For the same molecule, the CBGRluc activity ([4]; pLenti-CBGRluc transfected, Digitonin 50 μg/mL) was “increase in CBGRluc activity”, the “luciferase activity in the cell-free supernatants” value ([4]; transfected with GLuc, NLuc, MLuc7, TLuc16, Paluc1, Htluc1, Loluc, RLuc, Lucia-Luc, Digitonin 90 minutes) was “increase in luciferase activity” and the luciferase activity ([4]; transfected with HtLuc, LoLuc, MLuc7, Digitonin) was “increase in luciferase activity”. The “FfLuc and GLuc activities” value [5] was “increase in both FfLuc and GLuc activities”.
